Reference: patent US4695545A, “Culture and process for producing A41030 antibiotics” (Eli Lilly and Company, priority 1984, dated 1987)

Tests used:
[1] = system: Streptococcus sp. Group D; test: MIC aerobic bacteria, standard agar-dilution assay; type: cell-based
Solubility in solvents = type: physicochemical; settings: qualitative
From the text: As many as seven antibiotic factors are recovered from the fermentation and are obtained as a mixture, the A41030 complex. It will be recognized that the ratio of the factors in the A41030 complex will vary, depending upon the fermentation conditions used. The individual factors A, B, C, D, E, F, and G are separated and isolated as individual compounds, as hereinafter described.

Clostridium septicum = test: MIC anaerobic bacteria, agar-dilution; type: cell-based; settings: Clostridium septicum 1128
[2] = system: Peptostreptococcus anaerobius; test: MIC anaerobic bacteria, agar-dilution; type: cell-based; settings: Peptostreptococcus anaerobius 1428
Eubacterium aerofaciens = test: MIC anaerobic bacteria, agar-dilution; type: cell-based; settings: Eubacterium aerofaciens 1235
Clostridium difficile [3] = test: MIC anaerobic bacteria, agar-dilution; type: cell-based; settings: Clostridium difficile 2994; agar-dilution (Table 9)
Haemophilus influenzae = test: MIC aerobic bacteria, standard agar-dilution assay; type: cell-based
Peptococcus prevoti = test: MIC anaerobic bacteria, agar-dilution; type: cell-based; settings: Peptococcus prevoti 1281
[4] = system: Bacteroides melaninogenicus; test: MIC anaerobic bacteria, agar-dilution; type: cell-based; settings: Bacteroides melaninogenicus 2736
[5] = system: Peptostreptococcus intermedius; test: MIC anaerobic bacteria, agar-dilution; type: cell-based; settings: Peptostreptococcus intermedius 1264
Streptococcus pneumoniae = test: MIC aerobic bacteria, standard agar-dilution assay; type: cell-based; settings: Streptococcus pneumoniae Park I, 24 hours
Bacteroides corrodens = test: MIC anaerobic bacteria, agar-dilution; type: cell-based; settings: Bacteroides corrodens 1874
Streptococcus pyogenes = test: MIC aerobic bacteria, standard agar-dilution assay; type: cell-based; settings: Streptococcus pyogenes C203, 24 hours
[6] = system: Fusobacterium necrophorum; test: MIC anaerobic bacteria, agar-dilution; type: cell-based; settings: Fusobacterium necrophorum 6054A
Fusobacterium symbiosum = test: MIC anaerobic bacteria, agar-dilution; type: cell-based; settings: Fusobacterium symbiosum 1470
Staphylococcus aureus = test: MIC aerobic bacteria, standard agar-dilution assay; type: cell-based; settings: Staphylococcus aureus S13E; agar-dilution, 24 hours
Clostridium difficile [7] = test: MIC against Clostridium difficile strains, agar-dilution; type: cell-based
From the text: The A41030 antibiotic factors A, B, C, D, E, F, and G, are also active against a number of strains of Clostridium difficile, as determined by the agardilution method.

[8] = system: Staphylococcus epidermidis; test: MIC aerobic bacteria, standard agar-dilution assay; type: cell-based; settings: Staphylococcus epidermidis EPI1, 24 hours
[9] = system: Peptococcus asaccharolyticus; test: MIC anaerobic bacteria, agar-dilution; type: cell-based; settings: Peptococcus asaccharolyticus 1302
Propionibacterium acnes [10] = test: MIC anaerobic bacteria, agar-dilution; type: cell-based; settings: Propionibacterium acnes 79; agar-dilution (Table 9)
Clostridium perfringens = type: cell-based; settings: Clostridium perfringens 81; agar-dilution
Bacteroides vulgatis = test: MIC anaerobic bacteria, agar-dilution; type: cell-based; settings: Bacteroides vulgatis 1211
[11] = system: Bacteroides thetaiotaomicron; test: MIC anaerobic bacteria, agar-dilution; type: cell-based; settings: Bacteroides thetaiotaomicron 1438
Bacteroides fragilis = test: MIC anaerobic bacteria, agar-dilution; type: cell-based
[12] = Electrometric titration (pKa); type: physicochemical; settings: electrometric titration in 66% dimethylformamide in water; for possibly additional pKa's: stated as possible
From the text: Antibiotic A41030 factor A is a white, crystalline solid.

Propionibacterium acnes [13] = test: MIC against Propionibacterium acnes strains, 24-hour agar-dilution; type: cell-based
From the text: Antibiotic A41030 factors A, B and C have been tested and found to be active against a genus of anaerobic bacteria identified as Propionibacterium acnes.

S. pyogenes = test: In vivo oral activity against S. pyogenes in mice
[14] = Streptococcus sp. Group D 9960, 24 hours
[15] = Streptococcus sp. Group D X66, 24 hours

A41030 factor F
MIC [1, 14]: 4 µg/mL
MIC [1, 15]: 4 µg/mL
solubility (solvents) (Solubility in solvents): soluble in the same solvents as factor A
MIC (Clostridium septicum): 1.0 µg/mL
MIC [2]: 32 µg/mL
MIC (Eubacterium aerofaciens): 1.0 µg/mL
MIC (Clostridium difficile [3]): 1.0 µg/mL
MIC (Haemophilus influenzae; Haemophilus influenzae 76, 24 hours): 32 µg/mL
MIC (Haemophilus influenzae; Haemophilus influenzae C.L., 24 hours): 32 µg/mL
MIC (Peptococcus prevoti): 32 µg/mL
MIC [4]: 1.0 µg/mL
MIC [5]: 1.0 µg/mL
MIC (Streptococcus pneumoniae): 2 µg/mL
MIC (Bacteroides corrodens): 32 µg/mL
MIC (Streptococcus pyogenes): 2 µg/mL
MIC [6]: 1.0 µg/mL
MIC (Fusobacterium symbiosum): 1.0 µg/mL
MIC (Staphylococcus aureus): 1 µg/mL
MIC (Clostridium difficile [7]; Clostridium difficile 78): 1.0 µg/mL
MIC (Clostridium difficile [7]; Clostridium difficile 107B): 1.0 µg/mL
MIC (Clostridium difficile [7]; Clostridium difficile 111F): 2 µg/mL
MIC (Clostridium difficile [7]; Clostridium difficile 1153): 2 µg/mL
MIC (Clostridium difficile [7]; Clostridium difficile 2634): 2 µg/mL
MIC (Clostridium difficile [7]; Clostridium difficile 3424-5B): 1.0 µg/mL
MIC (Clostridium difficile [7]; Clostridium difficile 3816): 1.0 µg/mL
MIC (Clostridium difficile [7]; Clostridium difficile 3950D): 1.0 µg/mL
MIC (Clostridium difficile [7]; Clostridium difficile 6890): 1.0 µg/mL
MIC (Clostridium difficile [7]; Clostridium difficile 8484): 1.0 µg/mL
MIC (Clostridium difficile [7]; Clostridium difficile A-194): 1.0 µg/mL
MIC (Clostridium difficile [7]; Clostridium difficile A-195): 1.0 µg/mL
MIC (Clostridium difficile [7]; Clostridium difficile A-196): 2 µg/mL
MIC (Clostridium difficile [7]; Clostridium difficile A-279): 1.0 µg/mL
MIC (Clostridium difficile [7]; Clostridium difficile A-280): 1.0 µg/mL
MIC (Clostridium difficile [7]; Clostridium difficile A-281): 2 µg/mL
MIC (Clostridium difficile [7]; Clostridium difficile WAL-2112): 1.0 µg/mL
MIC (Clostridium difficile [7]; Clostridium difficile WAL-3657): 1.0 µg/mL
MIC (Clostridium difficile [7]; Clostridium difficile WAL-4268): 1.0 µg/mL
MIC [8]: 0.25 µg/mL
MIC [9]: ≤ 0.25 µg/mL
MIC (Propionibacterium acnes [10]): 1.0 µg/mL
MIC (Clostridium perfringens): 1.0 µg/mL
MIC (Bacteroides vulgatis): 32 µg/mL
MIC [11]: 64 µg/mL
MIC (Bacteroides fragilis; Bacteroides fragilis 111): 32 µg/mL
MIC (Bacteroides fragilis; Bacteroides fragilis 1877): 32 µg/mL
MIC (Bacteroides fragilis; Bacteroides fragilis 1936B): 32 µg/mL
possibly additional pKa's [12]: > 10

A41030 factor C
MIC [1, 14]: 4 µg/mL
MIC [1, 15]: 2 µg/mL
solubility (solvents) (Solubility in solvents): soluble in the same solvents as factor A
MIC (Clostridium septicum): 8 µg/mL
MIC [2]: ≤ 0.25 µg/mL
MIC (Clostridium difficile [3]): 16 µg/mL
MIC (Haemophilus influenzae; Haemophilus influenzae 251, 24 hours): 4 µg/mL
MIC (Haemophilus influenzae; Haemophilus influenzae Brun, 24 hours): 16 µg/mL
MIC (Peptococcus prevoti): ≤ 0.25 µg/mL
MIC [4]: 4 µg/mL
MIC (Streptococcus pneumoniae): 1 µg/mL
MIC (Bacteroides corrodens): 32 µg/mL
MIC (Streptococcus pyogenes): 1 µg/mL
MIC [6]: 16 µg/mL
MIC (Fusobacterium symbiosum): 1.0 µg/mL
MIC (Clostridium difficile [7]; Clostridium difficile 78): 1.0 µg/mL
MIC (Clostridium difficile [7]; Clostridium difficile 107B): 1.0 µg/mL
MIC (Clostridium difficile [7]; Clostridium difficile 111F): 2 µg/mL
MIC (Clostridium difficile [7]; Clostridium difficile 1153): 2 µg/mL
MIC (Clostridium difficile [7]; Clostridium difficile 2634): 2 µg/mL
MIC (Clostridium difficile [7]; Clostridium difficile 3424-5B): 1.0 µg/mL
MIC (Clostridium difficile [7]; Clostridium difficile 3816): 2 µg/mL
MIC (Clostridium difficile [7]; Clostridium difficile 3950D): 2 µg/mL
MIC (Clostridium difficile [7]; Clostridium difficile 6890): 2 µg/mL
MIC (Clostridium difficile [7]; Clostridium difficile 8484): 1.0 µg/mL
MIC (Clostridium difficile [7]; Clostridium difficile A-194): 2 µg/mL
MIC (Clostridium difficile [7]; Clostridium difficile A-195): 1.0 µg/mL
MIC (Clostridium difficile [7]; Clostridium difficile A-196): 2 µg/mL
MIC (Clostridium difficile [7]; Clostridium difficile A-279): 2 µg/mL
MIC (Clostridium difficile [7]; Clostridium difficile A-280): 1.0 µg/mL
MIC (Clostridium difficile [7]; Clostridium difficile A-281): 2 µg/mL
MIC (Clostridium difficile [7]; Clostridium difficile WAL-2112): 2 µg/mL
MIC (Clostridium difficile [7]; Clostridium difficile WAL-3657): 2 µg/mL
MIC (Clostridium difficile [7]; Clostridium difficile WAL-4268): 1.0 µg/mL
MIC [8]: 0.5 µg/mL
MIC [9]: ≤ 0.25 µg/mL
MIC (Propionibacterium acnes [10]): ≤ 0.25 µg/mL
MIC (Propionibacterium acnes [13]; P. acnes strain 104): 0.25 µg/mL
MIC (Propionibacterium acnes [13]; P. acnes strain 5170): ≤ 0.03 µg/mL
MIC (Propionibacterium acnes [13]; P. acnes strain 5176): ≤ 0.03 µg/mL
MIC (Propionibacterium acnes [13]; P. acnes strain 5187): 0.06 µg/mL
MIC (Propionibacterium acnes [13]; P. acnes strain 5197): ≤ 0.03 µg/mL
MIC (Propionibacterium acnes [13]; P. acnes strain 5227): 0.06 µg/mL
MIC (Propionibacterium acnes [13]; P. acnes strain 5228): 1.0 µg/mL
MIC (Propionibacterium acnes [13]; P. acnes strain 5229): 0.5 µg/mL
MIC (Propionibacterium acnes [13]; P. acnes strain 5246): 0.06 µg/mL
MIC (Propionibacterium acnes [13]; P. acnes strain 5292): 0.06 µg/mL
MIC (Clostridium perfringens): 1.0 µg/mL
MIC (Bacteroides vulgatis): 32 µg/mL
MIC [11]: 64 µg/mL
MIC (Bacteroides fragilis; Bacteroides fragilis 1877): 16 µg/mL
MIC (Bacteroides fragilis; Bacteroides fragilis 1936B): 32 µg/mL
in vivo oral activity (S. pyogenes): > 300 mg./kg.×2
pKa, second titratable group [12]: ~7.1
possibly additional pKa's [12]: > 10
